Assay results as given in patent publication EP4417616A1, “LXR ANTAGONISTS” (Ospedale San Raffaele S.r.l., priority 2023, dated 2024).

How the values were obtained:
[1] = tested on: LXR target genes ABCA1, SREBP1c, FASN and SCD1; assay: Quantitative Real-Time-PCR of LXR target genes in PMA-differentiated U937 cells; assay type: cell-based, human; conditions: U937 differentiated with PMA 72 hours; PFM037 50, 25 and 10 µM, 16 hours
Experimental: Reporter assay for nuclear receptor transcriptional activity. Human embryonic Kidney 293 cells (American Type Culture Collection) were cultured in Dulbecco's Modified Eagle's medium containing 10% of fetal bovine serum at 37°C in humidified atmosphere of 5% CO2. HEK293 cells (4×10^4 cells per well) were transiently transfected in 48 well plate with the reporter plasmids pMH100X4-TK-luc (100 ng/300µl), Renilla (22 ng/300µl) together with 100 ng/300µl of pCMX-Gal4-LXRα or pCMX-Gal4-LXRβ plasmids using X-tremeGENE 9 DNA Transfection Reagent (Roche). Six hours after transfection, the cells were treated with the appropriate compound for 24 hours. Luciferase activities were analyzed by luciferase Dual Reporter Assay Systems (Promega) according to the manufacturer's protocol. GAL4-LXRs, and TK-MHC100-luc plasmids were described in^7. For mammalian two-hybrid assays the human liver cell line Hhu7 (American Type Culture Collection) was transiently transfected with the reporter plasmids p5xUAS-tk-Luc (100 ng/300µl) together with pGAL4-RAP250-Del4 (133 ng/300µl), described in^39, and either of pVP16-LXRα-LBD or pVP16-LXRβ-LBD plasmids (133 ng/300µl), described in^40, using the jetPrime transfection reagent (Polyplus). Six hours after transfection, the cells were treated with the appropriate compound for 40 hours. Luciferase activity was analyzed as described above and protein content spectrophotometrically using Coomassie Plus Protein assay reagent (Thermo Scientific). Quantitative Real-Time-PCR. U937 cell line was differentiated in foam macrophages with phorbol 12-myristate 13-acetate (PMA) 10 ng/ml (Sigma) for 72 hours at 37°C in RPMI 10% FBS. At day 3 T0901317 (10 µM) or different amount of PFM037 (50, 25 and 10 µM) were added for 16 hours. Total RNA was purified by TRIZOL (Invitrogen). Reverse transcription was performed by MLV-reverse transcriptase (Promega). QPCR was performed using SYBR Green Master Mix (Applied Biosystems) and real-time PCR (Viia 7 Real Time PCR System, Applied Biosystems). PCR reactions were done in triplicate. The comparative Ct method was used to quantify transcripts that were normalized for human GAPDH. The following primer pairs were used: • GAPDH-F 5'-ACATCATCCCTGCCTCTACTG-3' (SEQ ID No. 1); • GAPDH-R 5'-ACCACCTGGTGCTCAGTGTA-3'(SEQ ID No. 2); • ABCA1-F 5'-CCA GGC CAG TAC GGA ATT C-3' (SEQ ID No. 3); • ABCA1-R 5'-CCT CGC CAA ACC AGT AGG A-3' (SEQ ID No. 4); • SREBP-1c-F 5'-GGC GGG CGC AGA TC-3' (SEQ ID No. 5); • SREBP-1c-R 5'-TTGTTGATAAGCTGAAGCATGTCT-3' (SEQ ID No. 6); • FAS F 5'-ACA GCG GGG AAT GGG TAC T-3'(SEQ ID No. 7); • FAS R 5'-GACTGGTACAACGAGCGGAT-3' (SEQ ID No. 8); • SCD1-F 5'-TTCAGAAACACATGCTGATCCTCATAATTC-3' (SEQ ID No. 9); • SCD1-R 5'-ATTAAGCACCACAGCATATCGCAAGAAAGT-3'(SEQ ID No. 10)

[2] = tested on: Lewis Lung Carcinoma (LLC); assay: Treatment of LLC tumor-bearing mice; assay type: in vivo
Text: Tumor challenge experiments.

[3] = Blood plasma chemistry analysis (plasma lipids); assay type: in vivo; conditions: tumor-bearing mice; PFM037 (0.4 µg/day); Fig. 5N
Experimental: Blood Plasma Chemistry Analysis. For all in vivo experiments mouse blood samples were collected via cardiac puncture and isolated plasma was analyzed by the COBAS c311 system (Roche) for plasma lipids.

[4] = tested on: bone marrow-purified monocytes; assay: In vitro mono-DC differentiation of bone marrow-purified monocytes cultured with M-CSF; assay type: cell-based, mouse; conditions: wild type monocytes, 48 hours of culture
[5] = tested on: B16F1 melanoma expressing OVA; assay: Antitumor activity of expanded OT-I T cells in mice bearing B16F1 melanoma expressing OVA; assay type: in vivo; conditions: 7-day established tumors; vs OT-I expanded with IL-2 or IL-7/IL15 without PFM037
Experimental: To evaluate whether PFM037 induces functional and phenotypic changes of in vitro activated OT-T cells, OT-I T cells were activated in the presence of anti-CD3/CD28 coated beads and IL-2. Forty-eight hours later the cells were differentiated and expanded by IL-7/IL15 (5ng/ml both cytokines) with or without PFM037. Ten, 12 and 15 days later, FACS analysis was performed to evaluate their differentiation status. […] T cells expanded by IL7 and II,15 in the presence of PFM037 also expressed at higher levels the sternness markers Sca1, Tcf1 and CXCR3. […] First, OT-I T cells expanded with IL-2 (effectors) or IL-7/ILIS with or without PFM037 (memory T cells) were injected in mice bearing 7-day established B16F1 melanoma expressing OVA. […] Then, mice bearing MC-38-OVA-liver metastases were treated with vehicle, or OT-I T cells expanded with IL-2 (effectors), or IL-7/IL15 with or without PFM037. Tumor-bearing mice injected with vehicle were all dead 40 days after tumor injection. Twenty percent of tumor-bearing mice treated with OT-I T cells expanded with IL-2 were alive at 60 days, whereas 50% and 80% of tumor-bearing mice treated with IL-7/IL15 with or without PFM037, respectively, were alive at 60 days (Fig. 20). […]

IL-1β release = assay: IL-1β release; conditions: at early times after PFM037 treatment
[6] = tested on: MC38-GFP colon cancer cells; assay: Liver metastasis model, intramesenteric injection of MC38-GFP cells; conditions: 400 µg, 3 days/week for 2 weeks; 21 days after tumor challenge; vs vehicle
Experimental: Macroscopic liver tumor quantification and Immunohistochemistry. At time of autopsy, visible macroscopic tumors were counted, and each liver macroscopically photographed. Livers were then perfused with PBS, harvested and different pieces were sampled, fixed in zinc-formalin and embedded in paraffin for hematoxylin/eosin or immunohistochemical analysis as described^62. Immunohistochemical staining was performed using a Bond RX Automated Immunohistochemistry system (Leica Microsystems GmbH, Wetzlar, Germany) on 3-µm-thick sections. First, tissues were deparaffinized and pre-treated with the Epitope Retrieval Solution [ER1 Citrate Buffer for GFP (dilution 1:500, GFP Polyclonal Antibody, Thermo Fisher Scientific, Cat# A11122, RRID:AB_221569). After washing steps, peroxidase blocking was carried out for 10 min using the Bond Polymer Refine Detection Kit DS9800 (Leica Microsystems GmbH). Then, tissues were washed and incubated for 1h RT with the primary antibody diluted in IHC Antibody Diluent (Novocastra, Leica RE7133). Subsequently, tissues were incubated with polymer-HRP (Biocare Medical, RT517H), developed with DAB-Chromogen for 10 minutes and counterstained with Hematoxilin for 5 minutes. For image acquisition and analysis eSlide Manager (Aperio Leica Biosystems) was used. All images were acquired using the Aperio AT2 system (Leica Biosystems). […]

[7] = LLC-bearing mice, 300 µg i.v. 5 days/week from day 6-7, vs vehicle

## CC(C)CC[C@H](O)[C@@H](C)[C@H]1CC[C@H]2[C@@H]3CC=C4C[C@@H](OS(=O)(=O)[O-])CC[C@]4(C)[C@H]3CC[C@]12C.[Na+] [PFM037, 22(S)-Hydroxycholesterol-3-sulfate sodium salt]
[1]
  ABCA1 transcripts: no activation
  FASN mRNA expression: inhibition
  SCD1 mRNA expression: inhibition
  SREBP-1c mRNA expression: inhibition
[2]; [7]
  absolute numbers of tumor-infiltrating mono-DCs: Higher
  tumor growth: delay of tumor growth
[2]; established LLC tumors, 300 µg/mouse every other day, Fig. 24B
  tumor growth: able to control LLC tumor growth
[2]; wild type BM-chimera mice, compared to vehicle, Fig. 7C
  LLC growth in wild type BM-chimera mice: better control of LLC growth
[3]
  plasma HDL: reduced levels
  plasma LDL: did not change
  plasma not esterified fatty acids: reduced levels
  plasma total cholesterol: reduced levels
  plasma triglycerides: reduced levels
[4]
  CD11c marker expression: expressed CD11c marker
[5]
  tumor growth control by OT-I T cells expanded with PFM037: significantly better
IL-1β release
  IL-1β release: no difference
[6]
  tumor area: reduced
  tumor nodules (macroscopic liver tumor lesions): much less
